Results from patent US20100152297A1, “COMPOSITION FOR REGULATING CELLULAR SENESCENCE COMPRISING N-[2-(CYCLOHEXY-LOXYL)-4-NITROPHENYL]-METHANESULFONAMIDE” (priority 2007, published 2010).
“Also recorded” adds a separate entry of the source.

Tests used:
[1] = test system: human fibroblasts; experiment: Regulation of growth rate: number of population doublings (PDs); type: cell-based; details: for effect on cellular senescence: conclusion from population doublings and SA-β-gal staining; for reduction of the maximum number of population doublings compared to DMSO: celecoxib 1 μM, nimesulide 20 μM, aspirin 1 mM, ibuprofen 20 μM, flurbiprofen 5 μM
Description: According to the literature of Boyce and Ham (1983), human fibroblasts were isolated from foreskin, and then cultured in a DMEM medium, containing 10% fetal bovine serum (Life Technology Inc., Grand Island, N.Y.), penicillin (100 units/ml) and streptomycin (100 units/ml)). […] Then, the number of the cells was calculated by trypan blue staining, and the number of population doublings (PDs) of the cells was calculated according to the following equation 1: Number of population doublings (PDs)=log(A/B)/log2 [Math Figure 1] wherein A is the number of cells harvested at one passage, and B is the initial cell number at that passage.

[2] = test system: reactive oxygen species; experiment: Measurement of reactive oxygen species with DCFH-DA; type: cell-based, human; details: treated for a long period of time (65 days), P29
Description: In order to examine the effects of COX-2 inhibitors on cellular senescence, cells were cultured and treated in the same manner as in Example 2, and reactive oxygen in the cells was then measured. The cultured cells were treated with 5 μM DCFH-DA (Invitrogen, Carlsbad, Calif.), and the cells were incubated at 37 C for 45 minutes and then washed with PBS. The washed cells were collected in 1 ml PBS, and then disrupted with ultrasonic waves. The fluorescence of the cells was measured with a fluorescence spectrophotometer (Molecular Devices, Sunnyvale, Calif.), and the measured fluorescence value was corrected with the cell number.

[3] = test system: catalase; experiment: Western blot, catalase expression; type: cell-based, human; details: P28 cells cultured in the presence of inhibitor
[4] = test system: SOD-2 (superoxide dismutase-2); experiment: Western blot, SOD-2 expression; type: cell-based, human; details: P28 cells cultured in the presence of inhibitor
[5] = test system: Gpx-1 (glutathione peroxidase-1); experiment: Western blot, Gpx-1 expression; type: cell-based, human; details: P28 cells cultured in the presence of inhibitor
[6] = test system: p53; experiment: Western blot, p53 expression; type: cell-based, human; details: cells cultured with inhibitor, harvested at each passage
[7] = test system: p21; experiment: Western blot, p21 expression; type: cell-based, human; details: cells cultured with inhibitor, harvested at each passage
Description: In order to examine the effects of COX-2 inhibitors on cellular senescence, cells were cultured and treated in the same manner as in Example 2, and then subjected to Western blot. The cultured cells were washed and collected in PBS, and then were disrupted in RIPA buffer (150 mM NaCl, 100 mM Tris-HCl, 1% Tween-20, 1% sodium deoxycholate and 0.1% SDS), containing 0.5 mM EDTA, 1 mM PMSF, 10 μg/ml leupeptin, 10 μg/ml aprotinin and 10 μg/ml pepstatin. The disrupted cells were centrifuged, and the supernatant was collected. Proteins in the cell extract were isolated by SDS-PAGE and transferred to nitrocellulose membranes. Then, the proteins were allowed to react with each of p53, p21, COX-1, COX-2 and caveolin-1 antibodies, and the protein-antibody complexes on the nitrocellulose membranes were allowed to react with peroxidase-conjugated anti-mouse or anti-rabbit secondary antibody. Then, the corresponding bands were visualized by chemiluminescence (Amersham Bioscience, Boston, Mass.) using an ECL kit. Herein, the antibodies for p53, p21 and COX-1 were purchased from Oncogene Science (Cambridge, Mass.), Cell Signaling Technology, Inc. (Danvers, Mass.), and Santa Cruz Biotechnology (Santa Cruz, Calif.), respectively, and the antibodies for COX-2 and cavelolin-1 were purchased from BD Bioscience (San Jose, Calif.). […]

[8] = test system: caveolin-1; experiment: Western blot, caveolin-1 expression; type: cell-based, human; details: for expression of caveolin-1: cells cultured with inhibitor, harvested at each passage; for expression of caveolin-1, short treatment: short period of time (NS-398: 4 hours)
Description: In order to examine the effects of COX-2 inhibitors on cellular senescence, cells were cultured and treated in the same manner as in Example 2, and then subjected to Western blot. The cultured cells were washed and collected in PBS, and then were disrupted in RIPA buffer (150 mM NaCl, 100 mM Tris-HCl, 1% Tween-20, 1% sodium deoxycholate and 0.1% SDS), containing 0.5 mM EDTA, 1 mM PMSF, 10 μg/ml leupeptin, 10 μg/ml aprotinin and 10 μg/ml pepstatin. The disrupted cells were centrifuged, and the supernatant was collected. Proteins in the cell extract were isolated by SDS-PAGE and transferred to nitrocellulose membranes. Then, the proteins were allowed to react with each of p53, p21, COX-1, COX-2 and caveolin-1 antibodies, and the protein-antibody complexes on the nitrocellulose membranes were allowed to react with peroxidase-conjugated anti-mouse or anti-rabbit secondary antibody. Then, the corresponding bands were visualized by chemiluminescence (Amersham Bioscience, Boston, Mass.) using an ECL kit. Herein, the antibodies for p53, p21 and COX-1 were purchased from Oncogene Science (Cambridge, Mass.), Cell Signaling Technology, Inc. (Danvers, Mass.), and Santa Cruz Biotechnology (Santa Cruz, Calif.), respectively, and the antibodies for COX-2 and cavelolin-1 were purchased from BD Bioscience (San Jose, Calif.). Also, β-actin was used as an intracellular control protein to correct the amount of the intracellular total protein.

[9] = test system: caveolin-1 mRNA; experiment: RT-PCR, caveolin-1 mRNA; type: cell-based, human; details: corrected with GAPDH
Description: In order to examine the effects of COX-2 inhibitors on cellular senescence, cells were cultured and treated in the same manner as in Example 2, and then subjected to RT-PCR. […] The cavelolin-1 gene was amplified using a sense primer ([NT]) and an anti-sense primer ([NT]), and the GAPDH gene was amplified using a sense primer ([NT]) and an anti-sense primer ([NT]). The polymerase chain reaction was performed in the following conditions: 25 cycles of 30 sec at 95 t, 30 sec at 60° C. and 30 sec at 72° C. The resulting DNA products were electrophoresed on 2% agarose gel containing EtBr.

[10] = test system: total cholesterol; experiment: Analysis of intracellular total cholesterol; type: cell-based, human; details: corrected with protein concentration
Description: In order to examine the effects of COX-2 inhibitors on cellular senescence, cells were cultured and treated in the same manner as in Example 2, and then analyzed for cholesterol. 2×10^6 cells were treated with a mixture of chloroform and methanol (2:1) to extract a fatty component. The amount of total cholesterol in the fatty component was measured at 570 nm using a staining method according to the manual of BioVision (Mountain View, Calif.), and the measured values were corrected with the protein concentration.

[11] = test system: human promonocytes; details: reference 25; cited from earlier work
[12] = test system: collagen; details: fibroblasts and hepatic stellate cells; references 24 and 36; cited from earlier work
[13] = test system: human fibroblasts; experiment: Senescence-associated beta-galactosidase (SA-β-gal) staining; type: cell-based; details: celecoxib 1 μM, nimesulide 20 μM, aspirin 1 mM, ibuprofen 20 μM, flurbiprofen 5 μM
Description: Herein, the senescence-associated β-galactosidase (SA-β-gal) staining was performed in the following manner according to the method of Dimri et al. (1995) (17). […] The cultured cells were seeded on a 35 mm dish, and then stabilized. Then, the cells were washed twice with PBS and fixed with 3% formaldehyde at room temperature for 5 minutes. […] During the progression of the reaction, light was blocked. […] The experiment was independently repeated twice, and the mean value and standard deviation of the measurements were calculated.

[14] = test system: human vascular endothelial cells; details: reference 16; cited from earlier work
[15] = test system: Drosophila; details: long-term administration; reference 15; cited from earlier work

CS(=O)(=O)Nc1ccc([N+](=O)[O-])cc1OC1CCCCC1 [NS-398, N-[2-(cyclohexyloxyl)-4-nitrophenyl]-methanesulfonamide]
increase of the maximum number of population doublings compared to DMSO ([1]; PD 24 before treatment, NS-398 20 μM): 7 times | effect on cellular senescence [1]: inhibited cellular senescence; also recorded: strongly inhibits cellular senescence | reduction of the level of reactive oxygen species [2]: three | expression of catalase [3]: reduced | expression of SOD-2 [4]: reduced | expression of Gpx-1 [5]: increased | expression of p53 [6]: without inhibiting | expression of p21 [7]: inhibited | expression of caveolin-1 [8]: inhibited the expression of caveolin-1 at all passages | expression of caveolin-1, short treatment [8]: clearly inhibited | mRNA level of caveolin-1 [9]: reduced | intracellular total cholesterol concentration [10]: reduced | reactive oxygen species in human promonocytes [11]: remove reactive oxygen species | expression of collagen [12]: increased

CC(=O)Oc1ccccc1C(=O)O [aspirin, acetylsalicylic acid]
reduction of the maximum number of population doublings compared to DMSO ([1]; PD 24 before treatment): 7 times | effect on cellular senescence [1]: promoted cellular senescence | increase of the ratio of SA-β-gal positive cells compared to DMSO [13]: 1.9 times | effect on senescence in human vascular endothelial cells [14]: inhibited senescence | average lifespan of Drosophila [15]: led to a decrease in the average lifespan of the Drosophila or had no effect on the average lifespan

Cc1ccc(-c2cc(C(F)(F)F)nn2-c2ccc(S(N)(=O)=O)cc2)cc1 [celecoxib]
increase of the level of reactive oxygen species [2]: 1.2 times

CC(C(=O)O)c1ccc(-c2ccccc2)c(F)c1 (stereo not shown) [flurbiprofen]
reduction of the maximum number of population doublings compared to DMSO ([1]; PD 24 before treatment): 4 times | effect on cellular senescence [1]: promoted cellular senescence | increase of the ratio of SA-β-gal positive cells compared to DMSO [13]: 1.6 times

CC(C)Cc1ccc(C(C)C(=O)O)cc1 (stereo not shown) [ibuprofen]
reduction of the maximum number of population doublings compared to DMSO ([1]; PD 24 before treatment): 5 times | effect on cellular senescence [1]: promoted cellular senescence | increase of the ratio of SA-β-gal positive cells compared to DMSO [13]: 1.7 times

COc1ccc2c(c1)c(CC(=O)O)c(C)n2C(=O)c1ccc(Cl)cc1 [indomethacin]
effect on senescence in human vascular endothelial cells [14]: promoted senescence | average lifespan of Drosophila [15]: led to a decrease in the average lifespan of the Drosophila or had no effect on the average lifespan

CS(=O)(=O)Nc1ccc([N+](=O)[O-])cc1Oc1ccccc1 [nimesulide]
reduction of the maximum number of population doublings compared to DMSO ([1]; PD 24 before treatment): two | effect on cellular senescence [1]: promoted cellular senescence | increase of the ratio of SA-β-gal positive cells compared to DMSO [13]: 1.3 times | increase of the level of reactive oxygen species [2]: 1.2 times | expression of catalase [3]: reduced | expression of SOD-2 [4]: reduced | expression of Gpx-1 [5]: reduced | expression of p53 [6]: increased | expression of p21 [7]: increased | expression of caveolin-1 [8]: increased | expression of caveolin-1, short treatment [8]: did not significantly change | mRNA level of caveolin-1 [9]: increased | intracellular total cholesterol concentration [10]: increased | reactive oxygen species in human promonocytes [11]: remove reactive oxygen species

O=C(O)c1ccccc1O [salicylic acid]
average lifespan of Drosophila [15]: led to a decrease in the average lifespan of the Drosophila or had no effect on the average lifespan
